Molecular target: T1, ratTRPA1 (rTRPA1) (Rattus norvegicus, UniProt Q6RI86)
T1 construct: expressed in transfected cells
Assay: TRPA1 calcium imaging in CHO cells (AITC activation)
Assay type: cell-based
Conditions: CHO cells expressing TRPA1, Fluo-4, AITC 160 μM
Protocol: TRPA1 is known to be responsible for inflammatory and neuropathic pain appearance; therefore, it can be considered as a potential biological target for the analgesic action of the studied pyrazolones. Therefore, we studied the effect of pyrazolone 6b, showing the maximum analgesic effect in the hot plate test at 1 h on the activation of the TRPA1 ion channel by allyl isothiocyanate (AITC). The cell line CHO (Chinese hamster ovary cell) stably expressing the TRPA1 channel was used for measurement. Activation by a specific agonist was measured by fluorescence spectroscopy using Fluo-4 dye by changing the level of intracellular calcium.
Testing for receptors ratTRPA1 (rTRPA1) and ratTRPV1 (rTRPV1), stably expressed in CHO cells, was carried out using the calcium imaging method as described in [123, 124]. Fluorescence was performed using NOVOstar (BMG LABTECH, Ortenberg, Germany). The tested substances in 26% DMSO solution or 26% DMSO solution alone (negative control) (5 μL) were added to the cells loaded with the cytoplasmic calcium indicator Fluo-4AM using Fluo-4 Direct™ Calcium Assay Kit (Thermo Fisher Scientific Inc., Waltham, MA, USA) (60 μL) and incubated 5–10 min. Final DMSO concentration was 2%. Changes in cell fluorescence (λex = 485 nm, λem = 520 nm) were monitored at 25 °C before and after the addition of relevant agonist. […]

T1 sequence (Q6RI86 whole entry): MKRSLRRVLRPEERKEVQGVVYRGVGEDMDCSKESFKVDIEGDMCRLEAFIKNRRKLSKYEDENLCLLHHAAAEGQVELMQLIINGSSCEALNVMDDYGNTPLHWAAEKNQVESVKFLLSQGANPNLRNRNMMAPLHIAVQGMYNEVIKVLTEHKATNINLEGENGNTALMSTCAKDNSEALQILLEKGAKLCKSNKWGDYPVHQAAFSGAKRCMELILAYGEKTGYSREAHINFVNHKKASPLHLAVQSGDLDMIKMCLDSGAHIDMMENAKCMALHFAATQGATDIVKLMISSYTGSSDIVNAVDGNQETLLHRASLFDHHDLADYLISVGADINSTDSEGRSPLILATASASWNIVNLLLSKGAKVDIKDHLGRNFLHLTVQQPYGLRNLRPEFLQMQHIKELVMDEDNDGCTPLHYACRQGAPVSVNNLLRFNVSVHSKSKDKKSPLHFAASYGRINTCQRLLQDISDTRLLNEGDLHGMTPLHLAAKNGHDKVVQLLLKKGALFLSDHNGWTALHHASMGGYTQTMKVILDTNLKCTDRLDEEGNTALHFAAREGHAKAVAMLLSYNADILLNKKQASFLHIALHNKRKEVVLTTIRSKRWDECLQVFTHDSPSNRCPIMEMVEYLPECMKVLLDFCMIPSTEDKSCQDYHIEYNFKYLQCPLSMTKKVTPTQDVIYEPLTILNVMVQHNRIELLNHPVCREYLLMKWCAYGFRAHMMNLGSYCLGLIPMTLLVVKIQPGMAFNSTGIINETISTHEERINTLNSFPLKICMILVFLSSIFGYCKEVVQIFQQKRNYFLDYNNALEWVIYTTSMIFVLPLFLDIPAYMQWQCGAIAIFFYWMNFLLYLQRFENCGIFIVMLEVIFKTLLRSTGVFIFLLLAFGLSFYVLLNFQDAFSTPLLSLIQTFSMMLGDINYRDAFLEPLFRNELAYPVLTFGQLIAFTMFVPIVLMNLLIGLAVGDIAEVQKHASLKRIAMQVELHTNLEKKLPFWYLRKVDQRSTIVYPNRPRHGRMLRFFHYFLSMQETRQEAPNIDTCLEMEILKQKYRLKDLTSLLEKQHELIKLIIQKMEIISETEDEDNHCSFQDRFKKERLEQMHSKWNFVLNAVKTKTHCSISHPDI

Cc1ccc(N/N=C2\C(=O)N(c3ccccc3)N=C2C(F)(F)C(F)(F)F)cc1 [6b, (4Z)-4-[2-(4-Methylphenyl)hydrazinylidene]-5-(pentafluoroethyl)-2-phenyl-2,4-dihydro-3H-pyrazol-3-one]
effect on AITC-induced TRPA1 channel activation: no significant effect

Reference: publication PMC9821843, “Powerful Potential of Polyfluoroalkyl-Containing 4-Arylhydrazinylidenepyrazol-3-ones for Pharmaceuticals” (Molecules, 2022)
